The compounds below were run against T1, BRD4 bromodomains (Homo sapiens, UniProt O60885) (assay: BROMOscan bromodomain competition binding assay (DiscoveRx)). Conditions: Kd from 11 compound concentrations ranging from 0 to 10 μM, read-out: BROMOscan Relative Activity.
T1 construct: fused on or other part: T7 phage capsid protein (phage-display fusion; the phage DNA is read out by qPCR)
Procedure, shortened: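 Compounds in 0.1% DMSO/0.9% MEG competed with a solid-phase acetylated peptide for T7 phage-fused BRD4 bromodomains, with the retained bromodomain measured by qPCR.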

| SMILES | Kd [nM] |
| --- | --- |
| Cc1noc(C)c1-c1ccc2nc(C(=O)N3CCc4[nH]ncc4C3)nc(N3CCOC[C@@H]3c3ccccc3)c2c1 [Example 285, (S)-(6-(3,5-dimethylisoxazol-4-yl)-4-(3-phenylmorpholino)quinazolin-2-yl)(1,4,6,7-tetrahydro-5H-pyrazolo[4,3-c]pyridin-5-yl)methanone] | 500 to 5000 |
| Cn1cc(-c2ccc3nc(-c4cnn(CC(N)=O)c4)nc(NCc4cncc(Cl)c4)c3c2)ccc1=O [Example 145, 2-(4-(4-(((5-chloropyridin-3-yl)methyl)amino)-6-(1-methyl-6-oxo-1,6-dihydropyridin-3-yl)quinazolin-2-yl)-1H-pyrazol-1-yl)acetamide] | 500 to 5000 |
| Cc1noc(C)c1-c1ccc2nc(-c3cnn(C(C)(C)CO)c3)nc(N3CCOC[C@@H]3c3ccccc3)c2c1 [Example 304, (S)-2-(4-(6-(3,5-dimethylisoxazol-4-yl)-4-(3-phenylmorpholino)quinazolin-2-yl)-1H-pyrazol-1-yl)-2-methylpropan-1-ol] | < 500 |
| Cc1n[nH]c(C)c1-c1ccc2nc(N3CCN(CCN(C)C)CC3)nc(NCc3cccc(Cl)c3)c2c1 [Example 65, N-(3-chlorobenzyl)-6-(3,5-dimethyl-1H-pyrazol-4-yl)-2-(4-(2-(dimethylamino)ethyl)piperazin-1-yl)quinazolin-4-amine] | 500 to 5000 |
| Cc1noc(C)c1-c1ccc2nc(C(=O)N[C@H]3CC[C@H](O)CC3)nc(N3CCOC[C@@H]3c3ccccc3)c2c1 [Example 273, 6-(3,5-dimethylisoxazol-4-yl)-N-((trans)-4-hydroxycyclohexyl)-4-((S)-3-phenylmorpholino)quinazoline-2-carboxamide] | < 500 |
| Cc1cncc(CNc2nc(N3CCN(CCN(C)C)CC3)nc3ccc(-c4c(C)noc4C)cc23)c1 [Example 115, 2-(4-(2-(dimethylamino)ethyl)piperazin-1-yl)-6-(3,5-dimethylisoxazol-4-yl)-N-((5-methylpyridin-3-yl)methyl)quinazolin-4-amine] | < 500 |
| Cc1noc(C)c1-c1ccc2nc(N3CCN(CCN(C)C)CC3)nc(N3CC(Cc4ccccc4)C3)c2c1 [Example 161, 2-(4-(4-(3-benzylazetidin-1-yl)-6-(3,5-dimethylisoxazol-4-yl)quinazolin-2-yl)piperazin-1-yl)-N,N-dimethylethanamine] | 500 to 5000 |
| Cc1noc(C)c1-c1ccc2nc(C(=O)NC3CN(C)C3)nc(N3CCOC[C@@H]3c3ccccc3)c2c1 [Example 277, (S)-6-(3,5-dimethylisoxazol-4-yl)-N-(1-methylazetidin-3-yl)-4-(3-phenylmorpholino)quinazoline-2-carboxamide] | < 500 |
| Cc1noc(C)c1-c1ccc2nc(-c3cnn(CC(C)(C)O)c3)nc(N3CCOC[C@H]3c3ccccc3)c2c1 [Example 263, (R)-1-(4-(6-(3,5-dimethylisoxazol-4-yl)-4-(3-phenylmorpholino)quinazolin-2-yl)-1H-pyrazol-1-yl)-2-methylpropan-2-ol] | < 500 |
| CN(C)CCN1CCN(c2nc(NCc3cccc(Cl)c3)c3cc(-c4ccc(=O)n(C)c4)ccc3n2)CC1 [Example 66, 5-(4-((3-chlorobenzyl)amino)-2-(4-(2-(dimethylamino)ethyl)piperazin-1-yl)quinazolin-6-yl)-1-methylpyridin-2(1H)-one] | < 500 |
| Cc1noc(C)c1-c1ccc2nc(-c3cnn(C4CCNCC4)c3)nc(N3CCOC[C@@H]3c3ccccc3)c2c1 [Example 319, (S)-4-(6-(3,5-dimethylisoxazol-4-yl)-2-(1-(piperidin-4-yl)-1H-pyrazol-4-yl)quinazolin-4-yl)-3-phenylmorpholine] | < 500 |
| Cc1noc(C)c1-c1ccc2nc(-c3cnn(CC(C)(C)O)c3)nc(N3CCNC[C@@H]3c3ccccc3)c2c1 [Example 291, (S)-1-(4-(6-(3,5-dimethylisoxazol-4-yl)-4-(2-phenylpiperazin-1-yl)quinazolin-2-yl)-1H-pyrazol-1-yl)-2-methylpropan-2-ol] | < 500 |
| Cc1noc(C)c1-c1ccc2nc(-c3cnn(CCO)c3)nc(NC3(c4cccc(Cl)c4)CC3)c2c1 [Example 164, 2-(4-(4-((1-(3-chlorophenyl)cyclopropyl)amino)-6-(3,5-dimethylisoxazol-4-yl)quinazolin-2-yl)-1H-pyrazol-1-yl)ethanol] | < 500 |
| Cc1noc(C)c1-c1ccc2nccc(NCc3cccc(Cl)c3)c2c1 [Example 3, N-(3-chlorobenzyl)-6-(3,5-dimethylisoxazol-4-yl)quinolin-4-amine] | 500 to 5000 |
| Cc1noc(C)c1-c1ccc2nc(N3CCN(CCN(C)C)CC3)nc(NCCc3ccc(Cl)cc3)c2c1 [Example 160, N-(4-chlorophenethyl)-2-(4-(2-(dimethylamino)ethyl)piperazin-1-yl)-6-(3,5-dimethylisoxazol-4-yl)quinazolin-4-amine] | 500 to 5000 |
| Cc1noc(C)c1-c1ccc2nc(-c3cnn(C(C)(C)CO)c3)nc(NCc3cncc(Cl)c3)c2c1 [Example 138, 2-(4-(4-(((5-chloropyridin-3-yl)methyl)amino)-6-(3,5-dimethylisoxazol-4-yl)quinazolin-2-yl)-1H-pyrazol-1-yl)-2-methylpropan-1-ol] | < 500 |
| Cc1noc(C)c1-c1ccc2nc(-c3ccc(CO)s3)nc(N3CCOC[C@@H]3c3ccccc3)c2c1 [Example 323, (S)-(5-(6-(3,5-dimethylisoxazol-4-yl)-4-(3-phenylmorpholino)quinazolin-2-yl)thiophen-2-yl)methanol] | 500 to 5000 |

Second part, the compound after the results:

| Kd [nM] | SMILES |
| --- | --- |
| < 500 | CC(=O)N1CCC(NC(=O)c2nc(NCc3cccc(Cl)c3)c3cc(-c4c(C)noc4C)ccc3n2)CC1 [Example 199, N-(1-acetylpiperidin-4-yl)-4-((3-chlorobenzyl)amino)-6-(3,5-dimethylisoxazol-4-yl)quinazoline-2-carboxamide] |
| < 500 | Cc1cncc(CNC(=O)c2nc(NCc3cccc(Cl)c3)c3cc(-c4c(C)noc4C)ccc3n2)c1 [Example 193, 4-((3-chlorobenzyl)amino)-6-(3,5-dimethylisoxazol-4-yl)-N-((5-methylpyridin-3-yl)methyl)quinazoline-2-carboxamide] |
| 500 to 5000 | Cc1noc(C)c1-c1ccc2nc(C(=O)N3CCc4[nH]ncc4C3)nc(NCc3cncc(Cl)c3)c2c1 [Example 284, (4-(((5-chloropyridin-3-yl)methyl)amino)-6-(3,5-dimethylisoxazol-4-yl)quinazolin-2-yl)(1,4,6,7-tetrahydro-5H-pyrazolo[4,3-c]pyridin-5-yl)methanone] |
| > 5000 | Cc1noc(C)c1-c1ccc2nc(C(=O)Nc3ccncc3F)nc(NCc3cccc(Cl)c3)c2c1 [Example 223, 4-((3-chlorobenzyl)amino)-6-(3,5-dimethylisoxazol-4-yl)-N-(3-fluoropyridin-4-yl)quinazoline-2-carboxamide] |
| < 500 | Cc1noc(C)c1-c1ccc2nc(C(=O)NCc3ncc[nH]3)nc(NCc3cccc(Cl)c3)c2c1 [Example 177, N-((1H-imidazol-2-yl)methyl)-4-((3-chlorobenzyl)amino)-6-(3,5-dimethylisoxazol-4-yl)quinazoline-2-carboxamide] |
| < 500 | Cc1noc(C)c1-c1ccc2nc(C(=O)NCc3cncn3C)nc(NCc3cncc(Cl)c3)c2c1 [Example 232, 4-(((5-chloropyridin-3-yl)methyl)amino)-6-(3,5-dimethylisoxazol-4-yl)-N-((1-methyl-1H-imidazol-5-yl)methyl)quinazoline-2-carboxamide] |
| 500 to 5000 | Cc1noc(C)c1-c1ccc2nc(C(=O)N3CCc4[nH]ncc4C3)cc(NCc3cccc(Cl)c3)c2c1 [Example 288, (4-((3-chlorobenzyl)amino)-6-(3,5-dimethylisoxazol-4-yl)quinolin-2-yl)(1,4,6,7-tetrahydro-5H-pyrazolo[4,3-c]pyridin-5-yl)methanone] |
| < 500 | Cc1noc(C)c1-c1ccc2nc(N3CCN(CCN(C)C)CC3)nc(NCc3cccc(F)c3)c2c1 [Example 77, 2-(4-(2-(dimethylamino)ethyl)piperazin-1-yl)-6-(3,5-dimethylisoxazol-4-yl)-N-(3-fluorobenzyl)quinazolin-4-amine] |
| < 500 | Cc1cnc(CNC(=O)c2nc(NCc3cccc(Cl)c3)c3cc(-c4c(C)noc4C)ccc3n2)o1 [Example 216, 4-((3-chlorobenzyl)amino)-6-(3,5-dimethylisoxazol-4-yl)-N-((5-methyloxazol-2-yl)methyl)quinazoline-2-carboxamide] |
| < 500 | Cc1noc(C)c1-c1ccc2nc(N3CCN(C(=O)CN)CC3)nc(NCc3cncc(Cl)c3)c2c1 [Example 131, 2-amino-1-(4-(4-(((5-chloropyridin-3-yl)methyl)amino)-6-(3,5-dimethylisoxazol-4-yl)quinazolin-2-yl)piperazin-1-yl)ethanone] |
| < 500 | Cc1noc(C)c1-c1ccc2nc(C(=O)N3CCc4[nH]ncc4C3)nc(NCc3cccc(Cl)c3)c2c1 [Example 287, (4-((3-chlorobenzyl)amino)-6-(3,5-dimethylisoxazol-4-yl)quinazolin-2-yl)(1,4,6,7-tetrahydro-5H-pyrazolo[4,3-c]pyridin-5-yl)methanone] |
| < 500 | Cc1noc(C)c1-c1ccc2nc(C3=CCNCC3)nc(NCc3cccc(Cl)c3)c2c1 [Example 31, N-(3-chlorobenzyl)-6-(3,5-dimethylisoxazol-4-yl)-2-(1,2,3,6-tetrahydropyridin-4-yl)quinazolin-4-amine] |
| 500 to 5000 | Cc1noc(C)c1-c1ccc2nc(N3CCS(=O)(=O)CC3)nc(NCc3cccc(Cl)c3)c2c1 [Example 243, 4-(4-((3-chlorobenzyl)amino)-6-(3,5-dimethylisoxazol-4-yl)quinazolin-2-yl)thiomorpholine 1,1-dioxide] |
| < 500 | Cc1noc(C)c1-c1ccc2nc(N3CCN(C(=O)CO)CC3)nc(NCc3cncc(Cl)c3)c2c1 [Example 132, 1-(4-(4-(((5-chloropyridin-3-yl)methyl)amino)-6-(3,5-dimethylisoxazol-4-yl)quinazolin-2-yl)piperazin-1-yl)-2-hydroxyethanone] |

From US11028079B2 (ConverGene LLC, priority 2015, dated 2021)
